In US11607419B2, “Inhibitors of RAC1 and uses thereof for inducing bronchodilatation” (INSTITUT NATIONAL DE LA SANTE ET DE LA RECHERCHE MEDICALE …, priority 2017, dated 2023):

Assays:
RAC1 [1] = target: T1, RAC1 (Homo sapiens, UniProt P63000); conditions: compared with NSC23766
RAC1 [2] = target: T1, RAC1
[3] = tested on: Rac1-dependent ruffle formation in NIH3T3 cells; assay: Rac activator-induced membrane ruffling (actin staining) in fibroblasts; assay type: cell-based; conditions: fibroblasts, dose-dependent inhibition
Protocol: (§1) Cell culture, transfection and actin staining. NIH3T3 cells grew up in DMEM (Gibco; Invitrogen) containing 10% foetal bovine serum, 100 units/mL penicillin and 100 μg/mL streptomycin at 37° C. and 5% CO2. The culture medium was changed every 72 hours.
After treatments, fibroblasts were fixed with 4% paraformaldehyde in PBS, permeabilized in PBS 0.5% Triton X-100, and incubated with 130 μg/mL of FITC-conjugated phalloidin (Sigma) to visualize F-actin. After staining, images were captured by a fluorescence microscope (Nikon). The actin cytoskeleton organization was analyzed to observe Rac1-dependent ruffle formation.

[4] = target: T2, Rac-GTP (Rac1 activity) in NIH3T3 cells (Mus musculus, UniProt P63001); assay: Rac activation: active Rac immunoprecipitation and immunoblot of Rac-GTP in fibroblasts stimulated by a Rac activator; assay type: cell-based; conditions: pre-incubated 1 h
T2 construct: endogenous in cells; host or cells: NIH3T3
Protocol: as §1
Analysis of Rac1 activity. In NIH3T3 cells lysates, Rac1 activity was evaluated by active Rac immunoprecipitation using anti-Rac-GTP antibody (26903, NewEast Biosciences). The precipitated active Rac was subjected to SDS-PAGE and detected by immunoblot with anti-Rac1 antibody (BD biosciences).

fibroblast adhesion = assay: Cell adhesion assay using impedance technology; assay type: cell-based; conditions: fibroblasts, 10 μm
Protocol: Cell adhesion assay using impedance technology. Cells (10000/well) were seeded in a 96 well plate microtiter xCELLigence assay plate (E-Plate) (ACEA Biosciences Inc.) and placed on the Real-time xCELLigence Cell Analyzer (Roche Applied Science) platform at 37° C. to measure the “cell index” every 5 min for a period of 6 hours. The cell index unit is defined as (Rn−Rb)/15. Rn is the cell electrode impedance of the well when it contains cells. Rb is the background impedance of the well with the media alone.

| Compound | melting point [°C] | further results |
| --- | --- | --- |
| COc1ccc(OC)c(NS(=O)(=O)c2ccc(NC(=O)C#C[Si](C)(C)C)cc2)c1 | 84 | – |
| COc1ccccc1NS(=O)(=O)c1ccc(NC(=O)CSc2ccc(C)cc2)cc1 [(20), N-(4-(N-(2-methoxyphenyl)sulfamoyl)phenyl)-2-(p-tolylthio) acetamide] | 169.3 | Relative activity (NSC23766) (RAC1 [1]): >; IC50 (RAC1 [2]): 1 nM |
| COc1ccc(OC)c(NS(=O)(=O)c2ccc(NC(=O)CCCSc3ccc(C)cc3)cc2)c1 [(8)] | 153 | – |
| COc1ccc(OC)c(NS(=O)(=O)c2ccc([N+](=O)[O-])cc2)c1 [(9), N-(2,5-dimethoxyphenyl)-4-nitrobenzenesulfonamide] | 165 | – |
| COc1ccc(OC)c(N(C)S(=O)(=O)c2ccc(NC(=O)CCSc3ccc(C)cc3)cc2)c1 [(26), N-(4-(N-(2,5-dimethoxyphenyl)-N-methylsulfamoyl)phenyl)-3-(p-tolylthio)propanamide] | 48 | – |
| COc1ccc(OC)c(NS(=O)(=O)c2ccc(NC(=O)CCCc3ccc(C)cc3)cc2)c1 [(3), N-(4-(N-(2,5-dimethoxyphenyl)sulfamoyl)phenyl)-4-(p-tolyl) butanamide] | 126 | – |
| COc1ccc(OC)c(NS(=O)(=O)c2ccc(NC(=O)CSc3ccc(C)cc3)cc2)c1 [(4)] | 126 | – |
| COc1ccc(NS(=O)(=O)c2ccc(N)cc2)c(OC)c1 [Example 6, 4-amino-N-(2,4-dimethoxyphenyl)benzenesulfonamide] | 115 | – |
| COc1ccccc1NS(=O)(=O)c1ccc(NC(=O)CCSc2ccc(C)cc2)cc1 [(19), N-(4-(N-(2-methoxyphenyl)sulfamoyl)phenyl)-3-(p-tolylthio) propanamide] | 143.5 | Relative activity (NSC23766) (RAC1 [1]): >; IC50 (RAC1 [2]): 1 nM |
| COc1cccc(NS(=O)(=O)c2ccc(NC(=O)CCSc3ccc(C)cc3)cc2)c1 [(23), N-(4-(N-(3-methoxyphenyl)sulfamoyl)phenyl)-3-(p-tolylthio) propanamide] | 156.8 | – |
| COc1ccc(OC)c(NS(=O)(=O)c2ccc(NC(=O)CC[S+]([O-])c3ccc(C)cc3)cc2)c1 (stereo not drawn) [(24), N-(4-(N-(2,5-dimethoxyphenyl)sulfamoyl)phenyl)-3-(p-tolylsulfinyl)propanamide] | 148.1 | – |
| COc1cccc(NS(=O)(=O)c2ccc(N)cc2)c1 [(22)] | – | Relative activity (NSC23766) (RAC1 [1]): >; IC50 (RAC1 [2]): 1 nM |
| O=[N+]([O-])c1ccc(S(=O)(=O)Nc2ccccc2F)cc1 [Example 5] | 166 | – |
| COc1ccc(OC)c(NC(=O)c2ccc(NC(=O)CCSc3ccc(C)cc3)cc2)c1 [(7), N-(2,5-dimethoxyphenyl)-4-(3-(p-tolylthio)propanamido) benzamide] | 153 | – |
| COc1ccc(OC)c(NS(=O)(=O)c2ccc(NC(=O)CCOc3ccc(C)cc3)cc2)c1 [(6), N-(4-(N-(2,5-dimethoxyphenyl)sulfamoyl)phenyl)-3-(p-tolyloxy)propanamide] | 145 | Relative activity (NSC23766) (RAC1 [1]): >; IC50 (RAC1 [2]): 1 nM |
| Nc1ccc(S(=O)(=O)Nc2ccccc2F)cc1 [Example 10] | 190 | – |
| CCC(=O)Nc1ccc(S(=O)(=O)Nc2cc(OC)ccc2OC)cc1 [(11), N-(4-(N-(2,5-dimethoxyphenyl)sulfamoyl)phenyl) propionamide] | 170 | – |
| CCN(CC)CCCC(C)Nc1nc(C)cc(Nc2ccc3nc(C)cc(N)c3c2)n1 (stereo not drawn) [NSC23766, reference compound] | – | IC50 [3]: 2600 nM; Rac activation (Rac-GTP level) by a Rac activator [4]: prevented; adhesion rate of the cells (fibroblast adhesion): slow down |
| COc1ccc(NS(=O)(=O)c2ccc(NC(=O)CCSc3ccc(C)cc3)cc2)c(OC)c1 [(1), N-(4-(N-(2,4-dimethoxyphenyl)sulfamoyl)phenyl)-3-(p-tolylthio)propanamide] | – | Relative activity (NSC23766) (RAC1 [1]): >; IC50 (RAC1 [2]): 30 nM |
| COc1cccc(NS(=O)(=O)c2ccc([N+](=O)[O-])cc2)c1 [(21), N-(3-methoxyphenyl)-4-nitrobenzenesulfonamide] | 119.4 | – |
| Cc1ccc(SCCC(=O)Nc2ccc(S(=O)(=O)Nc3ccccc3F)cc2)cc1 [(30), N-(4-(N-(2-fluorophenyl)sulfamoyl)phenyl)-3-(p-tolylthio) propanamide] | 162 | – |
| COc1ccc(NS(=O)(=O)c2ccc([N+](=O)[O-])cc2)c(OC)c1 [Example 1, N-(2,4-dimethoxyphenyl)-4-nitrobenzenesulfonamide] | 161 | – |
| C=CC(=O)Nc1ccc(S(=O)(=O)Nc2cc(OC)ccc2OC)cc1 [(5), N-(4-(N-(2,5-dimethoxyphenyl)sulfamoyl)phenyl)acrylamide] | 126 | Relative activity (NSC23766) (RAC1 [1]): >; IC50 (RAC1 [2]): 0.1 nM |
| COc1ccccc1NS(=O)(=O)c1ccc(N)cc1 [(18), 4-amino-N-(2-methoxyphenyl)-benzenesulfonamide] | – | Relative activity (NSC23766) (RAC1 [1]): >; IC50 (RAC1 [2]): 1 nM |
| COc1ccccc1NS(=O)(=O)c1ccc([N+](=O)[O-])cc1 [(17), N-(2-methoxyphenyl)-4-nitrobenzenesulfonamide] | 156.5 | Relative activity (NSC23766) (RAC1 [1]): >; IC50 (RAC1 [2]): 1 nM |
| C#CC(=O)Nc1ccc(S(=O)(=O)Nc2cc(OC)ccc2OC)cc1 [(27), N-(4-(N-(2,5-dimethoxyphenyl)sulfamoyl)phenyl) propiolamide] | 200 | – |
| COc1ccc(OC)c(NS(=O)(=O)c2ccc(N)cc2)c1 [(10), 4-amino-N-(2,5-dimethoxyphenyl)benzenesulfonamide] | 126 | – |
| C=CC(=O)Nc1ccc(S(=O)(=O)N(C(=O)C=C)c2cc(OC)ccc2OC)cc1 [(16), N-acryloyl-N′-(4-(N-(2,5-dimethoxyphenyl)sulfamoyl)phenyl) acrylamide] | 220.8 | – |
| COc1ccc(OC)c(NS(=O)(=O)c2ccc(NC(=O)CCS(=O)(=O)c3ccc(C)cc3)cc2)c1 [(25), N-(4-(N-(2,5-dimethoxyphenyl)sulfamoyl)phenyl)-3-tosyl-propanamide] | 180.3 | – |
| COc1ccc(OC)c(NS(=O)(=O)c2ccc(NC(=O)CCl)cc2)c1 [(31), 2-chloro-N-(4-(N-(2,5-dimethoxyphenyl)sulfamoyl)phenyl) acetamide] | 190 | – |
